Measurements reported in patent US4801456A, “Growth hormone-releasing factor analogs” (International Minerals & Chemical Corp., priority 1987, dated 1989).
Square brackets hold non-standard residues; d marks the D form. Ends that are not written are not given here. Peptide text beside a SMILES is read from it. Nle = CCCC[C@H](N)C(=O)O

Key:
GH releasing activity = conditions: reported by Rivier et al.; cited from earlier work
[1] = system: rat pituitary cells in tissue culture; assay: Bioassay of hGRF analogs: GH release from cultured pituitary cells; assay type: cell-based; conditions: for Dose Needed to Release 2.01 μg/ml of GH (ED50 value for hGRF) / Maximum GH Released / Relative Maximum Activity (% of hGRF): from curves generated by ALLFIT; for GH release at dosages comparable to native hGRF: referring to Table 1; for Potency: (ED50 of hGRF)/(Dose required to give same response as ED50 of hGRF): relative to hGRF(1-44)-NH2 = 100
Text: The assay for biological activity, which is based on the ability to stimulate release of growth hormone in rat pituitary cells in tissue culture, has been described in detail (Culler, M. D.; Kenjo, T.: Obara, N.; Arimuar, A., Stimulation of cAMP. Accumulation by Human Pancreatic GH-Releasing Factor-(1-44). Am. J. Physiol. 1984, 247 (Endocrinol.Metab.10), E609-E615.
ALLFIT, the 4-parameter logistic curve fitting program available from the Biomedical Computer Technology Information Center, Vanderbilt Medical Center, Nashville TN, was used to determine ED50 and maximal stimulated values from the data. In several instances, the amount of GH released reached a maximum value and decreased with further increasing doses of the hGRF analogs. To simplify the data analysis, these values were not used in the calculations. The calculated maximal responses, the doses of the analog required to release the amount of GH released at the ED50 of the standard (hGRF) and the potencies of the analogs relative to hGRF, are given in Table 2. Generally all novel analogs were fully active and were able to stimulate the release of growth hormone with maximal values of GH release being within 80% of the value for natural hGRF.

Molecule | activity compared in vitro with the parent hpGRF(1-40)--OH (GH releasing activity) | GH Released (mean ± (S.E.)) ([1]; Dose 1 × 10^-6 M) | GH Released (mean ± (S.E.)) ([1]; Dose 1 × 10^-7 M) | GH Released (mean ± (S.E.)) ([1]; Dose 1 × 10^-8 M) | GH Released (mean ± (S.E.)) ([1]; Dose 1 × 10^-9 M) | GH Released (mean ± (S.E.)) ([1]; Dose 1 × 10^-10 M) | GH Released (mean ± (S.E.)) ([1]; Dose 1 × 10^-11 M) | Dose Needed to Release 2.01 μg/ml of GH (ED50 value for hGRF) [1] [nM] | Maximum GH Released [1] [µg/mL] | Relative Maximum Activity (% of hGRF) [1] [%] | GH release at dosages comparable to native hGRF [1] | Potency: (ED50 of hGRF)/(Dose required to give same response as ED50 of hGRF) [1] [%]
hpGRF(1-39)--NH2 (YADAIFTNSYRKVLGQLSARKLLQDIMSRQQGESNQERG-NH2; UniProt P01286 32-70, looked up, fragment) [shortened GRF analog tested by Rivier et al] | exhibited similar activity | – | – | – | – | – | – | – | – | – | – | –
hpGRF(1-29)--NH2 (YADAIFTNSYRKVLGQLSARKLLQDIMSR-NH2; UniProt P01286 32-60, looked up, fragment) [shortened GRF analog tested by Rivier et al] | exhibited similar activity | – | – | – | – | – | – | – | – | – | – | –
hpGRF(1-27)--NH2 (YADAIFTNSYRKVLGQLSARKLLQDIM-NH2; UniProt P01286 32-58, looked up, fragment) [shortened GRF analog tested by Rivier et al] | exhibited similar activity | – | – | – | – | – | – | – | – | – | – | –
hpGRF(1-32)--NH2 (YADAIFTNSYRKVLGQLSARKLLQDIMSRQQG-NH2; UniProt P01286 32-63, looked up, fragment) [shortened GRF analog tested by Rivier et al] | exhibited similar activity | – | – | – | – | – | – | – | – | – | – | –
hpGRF(1-40)--NH2 (YADAIFTNSYRKVLGQLSARKLLQDIMSRQQGESNQERGA-NH2; UniProt P01286 32-71, looked up, fragment) [shortened GRF analog tested by Rivier et al] | exhibited similar activity | – | – | – | – | – | – | – | – | – | – | –
CCCC[C@H](NC(=O)[C@@H](NC(=O)[C@H](CC(=O)O)NC(=O)[C@H](CCC(N)=O)NC(=O)[C@H](CC(C)C)NC(=O)[C@H](CC(C)C)NC(=O)[C@H](CCCCN)NC(=O)[C@H](CCCNC(=N)N)NC(=O)[C@H](C)NC(=O)[C@H](CO)NC(=O)[C@H](CC(C)C)NC(=O)[C@H](CCC(N)=O)NC(=O)CNC(=O)[C@H](CC(C)C)NC(=O)[C@@H](NC(=O)[C@H](CCCCN)NC(=O)[C@H](CCCNC(=N)N)NC(=O)[C@H](Cc1ccc(O)cc1)NC(=O)[C@H](CO)NC(=O)[C@H](CC(=O)O)NC(=O)[C@@H](NC(=O)[C@H](Cc1ccccc1)NC(=O)[C@@H](NC(=O)[C@H](C)NC(=O)[C@H](CC(=O)O)NC(=O)[C@H](C)NC(=O)[C@@H](N)Cc1ccc(O)cc1)[C@@H](C)CC)[C@@H](C)O)C(C)C)[C@@H](C)CC)C(=O)N[C@@H](CO)C(=O)N[C@@H](CCCNC(=N)N)C(=O)N[C@@H](CCC(N)=O)C(=O)N[C@@H](CCC(N)=O)C(N)=O [[Asp^8,Nle^27], [Asp^8,Nle^27]-hGRF(1-31)---NH2] (H-YADAIFTDSYRKVLGQLSARKLLQDI[Nle]SRQQ-NH2) | – | 3.17 (0.24) μg/mL | 3.52 (0.22) μg/mL | 3.59 (0.17) μg/mL | 2.69 (0.12) μg/mL | 1.18 (0.10) μg/mL | 0.61 (0.03) μg/mL | 0.39 | 3.60 | 109 | induced GH release in dosages comparable to those for native hGRF | 82
CCCC[C@H](NC(=O)[C@@H](NC(=O)[C@H](CC(N)=O)NC(=O)[C@H](CCC(N)=O)NC(=O)[C@H](CC(C)C)NC(=O)[C@H](CC(C)C)NC(=O)[C@H](CCCCN)NC(=O)[C@H](CCCNC(=N)N)NC(=O)[C@H](C)NC(=O)[C@H](CO)NC(=O)[C@H](CC(C)C)NC(=O)[C@H](CCC(N)=O)NC(=O)CNC(=O)[C@H](CC(C)C)NC(=O)[C@@H](NC(=O)[C@H](CCCCN)NC(=O)[C@H](CCCNC(=N)N)NC(=O)[C@H](Cc1ccc(O)cc1)NC(=O)[C@H](CO)NC(=O)[C@H](CC(=O)O)NC(=O)[C@@H](NC(=O)[C@H](Cc1ccccc1)NC(=O)[C@@H](NC(=O)[C@H](C)NC(=O)[C@H](CC(=O)O)NC(=O)[C@H](C)NC(=O)[C@@H](N)Cc1ccc(O)cc1)[C@@H](C)CC)[C@@H](C)O)C(C)C)[C@@H](C)CC)C(=O)N[C@@H](CO)C(=O)N[C@@H](CCCNC(=N)N)C(=O)N[C@@H](CCC(N)=O)C(=O)N[C@@H](CCC(N)=O)C(N)=O [[Asp^8,Asn^25,Nle^27], [Asp^8,Asn^25,Nle^27]-hGRF(1-31)--NH2] (H-YADAIFTDSYRKVLGQLSARKLLQNI[Nle]SRQQ-NH2) | – | 2.86 (0.07) μg/mL | 2.93 (0.17) μg/mL | 2.86 (0.08) μg/mL | 2.59 (0.17) μg/mL | 0.96 (0.07) μg/mL | 0.74 (0.09) μg/mL | 0.42 | 2.89 | 87 | induced GH release in dosages comparable to those for native hGRF | 76
CCCC[C@H](NC(=O)[C@@H](NC(=O)[C@H](CC(N)=O)NC(=O)[C@H](CCC(N)=O)NC(=O)[C@H](CC(C)C)NC(=O)[C@H](CC(C)C)NC(=O)[C@H](CCCCN)NC(=O)[C@H](CCCNC(=N)N)NC(=O)[C@H](C)NC(=O)[C@H](CO)NC(=O)[C@H](CC(C)C)NC(=O)[C@H](CCC(N)=O)NC(=O)CNC(=O)[C@H](CC(C)C)NC(=O)[C@@H](NC(=O)[C@H](CCCCN)NC(=O)[C@H](CCCNC(=N)N)NC(=O)[C@H](Cc1ccc(O)cc1)NC(=O)[C@H](CO)NC(=O)[C@H](CC(N)=O)NC(=O)[C@@H](NC(=O)[C@H](Cc1ccccc1)NC(=O)[C@@H](NC(=O)[C@H](C)NC(=O)[C@H](CC(N)=O)NC(=O)[C@H](C)NC(=O)[C@@H](N)Cc1ccc(O)cc1)[C@@H](C)CC)[C@@H](C)O)C(C)C)[C@@H](C)CC)C(=O)N[C@@H](CO)C(=O)N[C@@H](CCCNC(=N)N)C(=O)N[C@@H](CCC(N)=O)C(=O)N[C@@H](CCC(N)=O)C(N)=O [[Asn^3,Asn^25,Nle^27], [Asn^3,Asn^25,Nle^27]-hGRF(1-31)--NH2] (H-YANAIFTNSYRKVLGQLSARKLLQNI[Nle]SRQQ-NH2) | – | 2.96 (0.11) μg/mL | 3.30 (0.08) μg/mL | 3.21 (0.13) μg/mL | 1.58 (0.07) μg/mL | 0.81 (0.06) μg/mL | 0.65 (0.03) μg/mL | 1.54 | 3.33 | 101 | induced GH release in dosages comparable to those for native hGRF | 21
CCCC[C@H](NC(=O)[C@@H](NC(=O)[C@H](CC(=O)O)NC(=O)[C@H](CCC(N)=O)NC(=O)[C@H](CC(C)C)NC(=O)[C@H](CC(C)C)NC(=O)[C@H](CCCCN)NC(=O)[C@H](CCCNC(=N)N)NC(=O)[C@H](C)NC(=O)[C@H](CO)NC(=O)[C@H](CC(C)C)NC(=O)[C@H](CCC(N)=O)NC(=O)CNC(=O)[C@H](CC(C)C)NC(=O)[C@@H](NC(=O)[C@H](CCCCN)NC(=O)[C@H](CCCNC(=N)N)NC(=O)[C@H](Cc1ccc(O)cc1)NC(=O)[C@H](CO)NC(=O)[C@H](CC(N)=O)NC(=O)[C@@H](NC(=O)[C@H](Cc1ccccc1)NC(=O)[C@@H](NC(=O)[C@H](C)NC(=O)[C@H](CC(N)=O)NC(=O)[C@H](C)NC(=O)[C@@H](N)Cc1ccc(O)cc1)[C@@H](C)CC)[C@@H](C)O)C(C)C)[C@@H](C)CC)C(=O)N[C@@H](CO)C(=O)N[C@@H](CCCNC(=N)N)C(=O)N[C@@H](CCC(N)=O)C(=O)N[C@@H](CCC(N)=O)C(N)=O [[Asn^3,Nle^27], [Asn^3, Nle^27]-hGRF(1-31)--NH2] (H-YANAIFTNSYRKVLGQLSARKLLQDI[Nle]SRQQ-NH2) | – | 3.22 (0.16) μg/mL | 3.05 (0.09) μg/mL | 2.90 (0.12) μg/mL | 2.40 (0.06) μg/mL | 0.97 (0.01) μg/mL | 0.67 (0.08) μg/mL | 0.58 | 3.09 | 93 | induced GH release in dosages comparable to those for native hGRF | 55
